Calls of active or inactive are those of the source. The rule behind the calls is not given here.
Key:
[1] = molecular target: T1, 5-hydroxytryptamine receptor 2A (Homo sapiens, UniProt P28223); assay: Displacement of [3H]ketanserin from human 5HT2A receptor expressed in HEK293 Flp-In cells by liquid scintillation counting; format: cell-based
Rattus norvegicus [2] = assay: Effect on sleep-awake pattern in CD IGS rat model of insomnia assessed as latency to 20 secs REM sleep at 60 mg/kg, po by EEG/EMG study relative to vehicle control; format: functional
Rattus norvegicus [3] = assay: Increase in NREM sleep in CD IGS rat model of insomnia at 60 mg/kg, po after 4 hrs by EEG/EMG study relative to vehicle control; format: functional
[4] = molecular target: Histamine H3 receptor (Homo sapiens) (UniProt Q9Y5N1); assay: Displacement of [3H]R-alpha-methylhistamine from human histamine H3 receptor expressed in CHO Flp-In cells by liquid scintillation counting; format: cell-based
Rattus norvegicus [5] = assay: Effect on sleep-awake pattern in CD IGS rat model of insomnia assessed as latency to 1 min NREM sleep at 60 mg/kg, po by EEG/EMG study relative to vehicle control; format: functional
Rattus norvegicus [6] = assay: Increase in REM sleep in CD IGS rat model of insomnia at 60 mg/kg, po after 4 hrs by EEG/EMG study relative to vehicle control; format: functional
[7] = molecular target: T1, 5-hydroxytryptamine receptor 2A; assay: Displacement of [3H]ketanserin from human 5HT2A receptor expressed in HEK293 Flp-In cells at 10 uM by liquid scintillation counting; format: cell-based
in vitro [8] = settings: human, liver microsomes
[9] = molecular target: T2, Muscarinic acetylcholine receptor M1 (Homo sapiens, UniProt P11229); assay: Displacement of [3H]N-methylscopolamine from human muscarinic M1 receptor expressed in CHO Flp-In cells by liquid scintillation counting; format: cell-based
T2 sequence (P11229 whole entry): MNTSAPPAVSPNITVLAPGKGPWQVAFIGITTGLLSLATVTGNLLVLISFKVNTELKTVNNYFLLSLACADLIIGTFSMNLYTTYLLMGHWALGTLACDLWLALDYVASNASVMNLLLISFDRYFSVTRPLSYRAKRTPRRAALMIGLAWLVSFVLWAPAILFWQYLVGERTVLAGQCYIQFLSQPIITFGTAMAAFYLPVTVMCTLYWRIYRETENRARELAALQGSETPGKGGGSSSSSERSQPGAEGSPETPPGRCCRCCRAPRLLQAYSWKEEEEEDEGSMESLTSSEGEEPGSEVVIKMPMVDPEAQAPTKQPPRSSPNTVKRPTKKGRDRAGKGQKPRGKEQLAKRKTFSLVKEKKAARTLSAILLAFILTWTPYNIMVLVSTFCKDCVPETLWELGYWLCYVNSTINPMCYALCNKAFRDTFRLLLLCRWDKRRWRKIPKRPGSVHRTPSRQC

Histamine H1 receptor = Histamine H1 receptor (Homo sapiens, UniProt P35367); assay: Displacement of [3H]pyrilamine from human histamine H1 receptor expressed in CHO Flp-In cells by liquid scintillation counting; format: cell-based
[10] = molecular target: Muscarinic acetylcholine receptor M3 (Homo sapiens, UniProt P20309); assay: Displacement of [3H]N-methylscopolamine from human muscarinic M3 receptor expressed in CHO Flp-In cells by liquid scintillation counting; format: cell-based
Cytochrome P450 2D6 = Cytochrome P450 2D6 (Homo sapiens, UniProt P10635); assay: Inhibition of recombinant CYP2D6 in presence of NADPH generating system
Rattus norvegicus [11] = assay: Increase in NREM sleep in CD IGS rat model of insomnia at 30 mg/kg, po after 4 hrs by EEG/EMG study relative to vehicle control; format: functional
Rattus norvegicus [12] = assay: Effect on sleep-awake pattern in CD IGS rat model of insomnia assessed as latency to 20 secs REM sleep at 30 mg/kg, po by EEG/EMG study relative to vehicle control; format: functional
Rattus norvegicus [13] = assay: Effect on sleep-awake pattern in CD IGS rat model of insomnia assessed as latency to 1 min NREM sleep at 30 mg/kg, po by EEG/EMG study relative to vehicle control; format: functional
Rattus norvegicus [14] = assay: Increase in REM sleep in CD IGS rat model of insomnia at 30 mg/kg, po after 4 hrs by EEG/EMG study relative to vehicle control; format: functional
[15] = molecular target: Voltage-gated inwardly rectifying potassium channel KCNH2 (Homo sapiens, UniProt Q12809); assay: Inhibition of human ERG expressed in HEK293 cells by patch-clamp technique
Cytochrome P450 3A4 = Cytochrome P450 3A4 (Homo sapiens, UniProt P08684); assay: Inhibition of recombinant CYP3A4 in presence of NADPH generating system; format: ADME; settings: recombinant enzyme
[16] = Plasma concentration in rat at 30 mg/kg, po after 1 hr
Cynomolgus monkey = assay: Cardiotoxicity in conscious cynomolgus monkey assessed as decrease in heart rate up to 200 mg/kg administered as escalated dose with 1 week washout period between doses by telemetry study; format: toxicity, organism-based, Macaca fascicularis; parameters: dose 200 mg/kg; scale not given: the % may be the effect or the level left; settings: in vivo, 168 h
[17] = Drug level in rat brain at 30 mg/kg after 4 hrs by LC-MS-MS analysis; format: ADME, organism-based; parameters: dose 30 mg/kg; settings: read-out: Drug uptake
in vitro [18] = settings: rat, liver microsomes
[19] = Systemic clearance in rat by LC-MS-MS analysis; settings: human, in vivo
[20] = Drug level in rat brain at 30 mg/kg after 1 hr by LC-MS-MS analysis; format: ADME, organism-based; parameters: dose 30 mg/kg; settings: read-out: Drug uptake
[21] = Half life in human; format: ADME, organism-based; settings: in vivo
[22] = Elimination half life in human at 50 mg, po; format: ADME, organism-based; settings: in vivo, read-out: beta t1/2 (converted)

Sequence of Histamine H1 receptor (P35367 whole entry): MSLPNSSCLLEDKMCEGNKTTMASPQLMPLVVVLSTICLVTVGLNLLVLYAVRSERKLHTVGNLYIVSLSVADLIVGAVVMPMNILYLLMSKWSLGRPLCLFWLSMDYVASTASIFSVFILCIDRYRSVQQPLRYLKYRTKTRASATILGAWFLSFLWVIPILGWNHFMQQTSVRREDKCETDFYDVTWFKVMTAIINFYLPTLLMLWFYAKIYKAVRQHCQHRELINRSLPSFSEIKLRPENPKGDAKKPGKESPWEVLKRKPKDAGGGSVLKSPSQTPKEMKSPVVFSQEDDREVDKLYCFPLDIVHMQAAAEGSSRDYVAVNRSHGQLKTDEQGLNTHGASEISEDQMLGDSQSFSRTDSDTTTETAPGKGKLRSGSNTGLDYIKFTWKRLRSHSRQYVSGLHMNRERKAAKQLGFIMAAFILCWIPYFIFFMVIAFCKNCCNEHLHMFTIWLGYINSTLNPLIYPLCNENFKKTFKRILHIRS
Sequence of Histamine H3 receptor (Homo sapiens) (Q9Y5N1 whole entry): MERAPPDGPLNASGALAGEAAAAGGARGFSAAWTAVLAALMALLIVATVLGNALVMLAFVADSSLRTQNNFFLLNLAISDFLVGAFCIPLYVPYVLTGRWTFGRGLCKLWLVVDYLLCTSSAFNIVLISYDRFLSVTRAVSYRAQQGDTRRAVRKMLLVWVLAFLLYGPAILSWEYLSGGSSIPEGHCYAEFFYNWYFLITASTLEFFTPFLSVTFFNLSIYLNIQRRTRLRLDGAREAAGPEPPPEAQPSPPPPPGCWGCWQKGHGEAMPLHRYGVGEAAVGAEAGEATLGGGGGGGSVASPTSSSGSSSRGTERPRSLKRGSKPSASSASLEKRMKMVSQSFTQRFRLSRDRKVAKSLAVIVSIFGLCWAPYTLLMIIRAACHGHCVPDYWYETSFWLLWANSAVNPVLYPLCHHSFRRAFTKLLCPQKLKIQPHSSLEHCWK
T1 sequence (P28223 whole entry): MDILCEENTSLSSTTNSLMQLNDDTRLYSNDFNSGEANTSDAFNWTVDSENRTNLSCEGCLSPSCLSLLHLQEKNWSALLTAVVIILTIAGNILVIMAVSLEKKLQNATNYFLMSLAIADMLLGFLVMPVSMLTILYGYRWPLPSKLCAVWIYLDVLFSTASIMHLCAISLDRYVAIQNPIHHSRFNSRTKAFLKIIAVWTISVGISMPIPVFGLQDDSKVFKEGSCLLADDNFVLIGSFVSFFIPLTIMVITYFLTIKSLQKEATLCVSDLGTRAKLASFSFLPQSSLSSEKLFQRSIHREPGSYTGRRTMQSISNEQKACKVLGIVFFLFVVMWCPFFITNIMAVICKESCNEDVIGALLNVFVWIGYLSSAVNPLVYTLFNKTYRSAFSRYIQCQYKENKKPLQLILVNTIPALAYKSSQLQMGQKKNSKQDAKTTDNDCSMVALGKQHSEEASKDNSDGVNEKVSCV
Sequence of Cytochrome P450 2D6 (P10635 whole entry): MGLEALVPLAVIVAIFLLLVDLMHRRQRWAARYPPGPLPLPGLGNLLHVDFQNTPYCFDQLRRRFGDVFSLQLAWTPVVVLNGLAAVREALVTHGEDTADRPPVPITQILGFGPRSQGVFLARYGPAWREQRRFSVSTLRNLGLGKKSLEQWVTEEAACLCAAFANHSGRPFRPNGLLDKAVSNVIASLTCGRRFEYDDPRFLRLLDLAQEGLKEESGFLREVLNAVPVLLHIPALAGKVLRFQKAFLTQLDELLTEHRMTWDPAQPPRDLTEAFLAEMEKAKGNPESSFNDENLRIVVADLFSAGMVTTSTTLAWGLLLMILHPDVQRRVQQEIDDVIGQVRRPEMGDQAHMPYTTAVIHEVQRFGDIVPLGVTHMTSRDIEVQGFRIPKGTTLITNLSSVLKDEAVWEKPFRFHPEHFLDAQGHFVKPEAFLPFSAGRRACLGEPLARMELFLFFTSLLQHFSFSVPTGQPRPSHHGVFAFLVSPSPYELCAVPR
Sequence of Voltage-gated inwardly rectifying potassium channel KCNH2 (Q12809 whole entry): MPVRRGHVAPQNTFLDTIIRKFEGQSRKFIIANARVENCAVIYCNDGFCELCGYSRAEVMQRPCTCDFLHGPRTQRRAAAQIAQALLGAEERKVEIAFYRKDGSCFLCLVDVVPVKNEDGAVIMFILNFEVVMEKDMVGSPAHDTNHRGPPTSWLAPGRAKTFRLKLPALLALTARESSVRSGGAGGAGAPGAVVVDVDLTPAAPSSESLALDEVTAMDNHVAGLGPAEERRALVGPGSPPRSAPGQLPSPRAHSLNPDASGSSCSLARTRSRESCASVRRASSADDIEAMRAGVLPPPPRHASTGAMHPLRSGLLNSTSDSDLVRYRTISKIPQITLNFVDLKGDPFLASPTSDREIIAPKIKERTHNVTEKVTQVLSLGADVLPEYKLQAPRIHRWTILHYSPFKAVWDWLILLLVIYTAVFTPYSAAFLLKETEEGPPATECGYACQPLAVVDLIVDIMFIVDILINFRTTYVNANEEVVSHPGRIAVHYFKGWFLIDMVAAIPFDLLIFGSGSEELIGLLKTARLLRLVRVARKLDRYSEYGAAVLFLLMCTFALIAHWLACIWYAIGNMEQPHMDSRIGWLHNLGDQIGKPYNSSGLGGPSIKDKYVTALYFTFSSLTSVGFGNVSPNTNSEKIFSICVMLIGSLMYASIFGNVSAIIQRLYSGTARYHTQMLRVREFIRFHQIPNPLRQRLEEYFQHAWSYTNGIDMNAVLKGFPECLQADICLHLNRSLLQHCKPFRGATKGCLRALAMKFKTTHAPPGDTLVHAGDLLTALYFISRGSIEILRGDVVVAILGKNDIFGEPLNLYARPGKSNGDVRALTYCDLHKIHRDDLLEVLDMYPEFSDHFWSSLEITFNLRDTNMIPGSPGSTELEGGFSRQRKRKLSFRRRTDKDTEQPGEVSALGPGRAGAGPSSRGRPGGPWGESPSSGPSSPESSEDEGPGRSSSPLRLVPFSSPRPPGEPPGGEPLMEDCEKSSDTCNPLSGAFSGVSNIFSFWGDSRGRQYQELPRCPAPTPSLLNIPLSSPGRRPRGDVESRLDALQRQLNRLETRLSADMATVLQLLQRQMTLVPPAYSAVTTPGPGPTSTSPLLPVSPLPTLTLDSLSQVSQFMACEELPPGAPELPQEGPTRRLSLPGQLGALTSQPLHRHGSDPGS
Sequence of Muscarinic acetylcholine receptor M3 (P20309 whole entry): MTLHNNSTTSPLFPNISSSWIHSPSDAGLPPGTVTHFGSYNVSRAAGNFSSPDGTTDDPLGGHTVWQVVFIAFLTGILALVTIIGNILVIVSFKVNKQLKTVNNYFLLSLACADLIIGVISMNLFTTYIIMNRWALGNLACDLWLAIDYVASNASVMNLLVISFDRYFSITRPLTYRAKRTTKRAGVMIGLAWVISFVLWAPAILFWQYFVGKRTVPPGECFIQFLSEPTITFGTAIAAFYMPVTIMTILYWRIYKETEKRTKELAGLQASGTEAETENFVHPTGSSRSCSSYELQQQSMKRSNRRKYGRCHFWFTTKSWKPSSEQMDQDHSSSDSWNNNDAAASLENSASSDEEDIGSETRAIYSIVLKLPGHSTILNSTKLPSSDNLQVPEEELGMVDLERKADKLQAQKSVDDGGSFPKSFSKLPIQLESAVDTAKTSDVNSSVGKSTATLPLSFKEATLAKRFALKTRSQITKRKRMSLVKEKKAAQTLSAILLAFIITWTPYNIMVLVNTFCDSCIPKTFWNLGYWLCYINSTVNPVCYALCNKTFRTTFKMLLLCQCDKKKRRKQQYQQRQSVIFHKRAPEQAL
Sequence of Cytochrome P450 3A4 (P08684 whole entry): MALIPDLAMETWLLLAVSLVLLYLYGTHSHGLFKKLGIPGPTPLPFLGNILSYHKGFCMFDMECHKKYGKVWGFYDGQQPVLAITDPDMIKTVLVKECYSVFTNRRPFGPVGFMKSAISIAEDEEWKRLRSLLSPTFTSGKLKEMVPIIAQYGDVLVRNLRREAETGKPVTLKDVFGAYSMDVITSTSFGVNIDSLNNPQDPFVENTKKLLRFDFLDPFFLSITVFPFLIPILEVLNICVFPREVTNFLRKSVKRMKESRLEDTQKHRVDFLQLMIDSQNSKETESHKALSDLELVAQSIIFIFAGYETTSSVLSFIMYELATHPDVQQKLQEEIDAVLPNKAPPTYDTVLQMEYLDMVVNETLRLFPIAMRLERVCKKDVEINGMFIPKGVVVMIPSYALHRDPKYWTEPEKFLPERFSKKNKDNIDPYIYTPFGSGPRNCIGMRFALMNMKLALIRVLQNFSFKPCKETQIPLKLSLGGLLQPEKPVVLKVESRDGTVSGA

SMILES | Ki [1] [nM] | Activity (Rattus norvegicus [2]) [%] | Activity (Rattus norvegicus [3]) [%] | Activity [4] | Activity (Rattus norvegicus [5]) [%] | Activity (Rattus norvegicus [6]) [%] | Activity [7] [%] | CLhep predicted at 1 h, 1 µM (in vitro [8]) [mL/min/kg] | Ki [9] [nM] | Ki (Histamine H1 receptor) [nM] | IC50 (Cytochrome P450 2D6) [nM] | other results
CN(C)CCC1=C(Cc2cnccn2)c2ccccc2C1 | 600 | 92 | 159 | inactive | 79 | 113 | – | – | – | – | – | –
C[C@@H](c1ccccn1)c1c(CCN(C)C)oc2ccccc12 | – | – | – | inactive | – | – | 62 | 10 | 320 | 0.9 | – | Ki [10]: 76 nM
CN(C)CCC1=C(Cc2ccc(F)cc2)c2ccccc2C1 | 140 | – | – | inactive | – | – | – | 13 | – | 0.6 | 300 | –
CN(C)CCc1sc2ccccc2c1Cc1ccc(F)cc1 | 90 | – | – | inactive | – | – | – | 16 | 2000 | 11 | 200 | –
Cc1ccc(-c2nc3ccc(C)cn3c2CC(=O)N(C)C)cc1 [ZOLPIDEM] | – | – | – | – | – | – | – | – | – | – | – | Activity (Rattus norvegicus [11]): 220%; Activity (Rattus norvegicus [12]): 199%; Activity (Rattus norvegicus [13]): 18%; Activity (Rattus norvegicus [14]): 42%
C[C@H](C1=C(CCN(C)C)Cc2ccccc21)c1ccccn1 | – | 136 | 132 | inactive | 134 | 126 | 33 | 7 | 2400 | 0.4 | 32500 | IC50 [15]: 900 nM; inhibition (INH) (Cytochrome P450 3A4): Not Active
C[C@@H](c1ccccn1)c1c(CCN(C)C)sc2ccccc12 | – | – | – | inactive | – | – | 31 | 10 | 5300 | 4 | 28200 | IC50 [15]: 1400 nM; concentration at 1 h [16]: 4 ng/mL; Activity (Cynomolgus monkey): 16%; Activity (Rattus norvegicus [11]): 142%; concentration at 4 h [17]: 23 ng/mL; CLint scaled at 1 h, 1 µM (in vitro [18]): 2300 mL/min/kg; clearance [19]: 5.2 mL/min/kg; Activity (Rattus norvegicus [12]): 138%; concentration at 1 h [20]: 29 ng/mL; Activity (Rattus norvegicus [13]): 124%; Activity (Rattus norvegicus [14]): 167%
CN(C)CCc1sc2ccccc2c1Cc1cnccn1 | – | – | – | inactive | – | – | – | – | – | 75 | – | –
CC(C1=C(CCN(C)C)Cc2ccccc21)c1ccccn1 (racemic) | – | – | – | – | – | – | – | – | – | – | – | half-life [21]: 5 h; half-life [22]: 18 h
C[C@H](C1=C(CCN(C)C)Cc2ccccc21)c1cnccn1 | – | 104 | 145 | inactive | 109 | 129 | 32 | – | – | – | – | –

Source: ChEMBL document CHEMBL1153519, “Characterization of novel selective H1-antihistamines for clinical evaluation in the treatment of insomnia” (J Med Chem, 2009)
